Patent publication US20240398787A1, “TREATMENT OF MAJOR DEPRESSIVE DISORDER” (AbbVie Inc., priority 2021, published 2024)

Tested on: patients with major depressive disorder (MDD)
Assay: MADRS total score, Clinical Study A (Study 301): cariprazine adjunctive to ADT, 6-week double-blind
Assay type: in vivo, human
Conditions: for Proportion of patients with MADRS improvement ≥5 points / Proportion of patients with MADRS improvement ≥10 points / Proportion of patients with MADRS improvement ≥15 points / Proportion of patients with MADRS improvement ≥20 points / Proportion of patients with MADRS improvement ≥25 points: post hoc, end of week 6 (LOCF); for MADRS remission rate (total score ≤10) / MADRS response rate (≥50% score reduction from baseline): LOCF
Description: A global, multicenter, randomized, double-blind (DB), placebo-controlled, parallel-group, fixed-dose study compared cariprazine 1.5 mg/day and cariprazine 3 mg/day with placebo as an adjunctive treatment to ongoing ADT in outpatients with a diagnosis of MDD (via the Diagnostic and Statistical Manual of Mental Disorders, Fifth Edition [DSM-5]) having an inadequate response, as measured by the modified Antidepressant Treatment Response Questionnaire (ATRQ), to 1 to 3 antidepressants administered during the current episode at an adequate dose and adequate duration. Adequate dose was defined as a dose above the minimum labeled dose (per package insert). Adequate duration was defined as continuous ADT treatment for at least 6 weeks, with a minimum of 3 of 6 weeks above the minimal dose.
The study population included patients meeting criteria for MDD with a current major depressive episode of at least 8 weeks to less than 24 months in duration and an inadequate response to ongoing antidepressant therapy on the current episode. Both male and female patients of 18 to 65 years of age qualified for the study. Patients met the DSM-5 criteria for MDD based on the SCID-5, with a current major depressive episode of at least 8 weeks to less than 24 months in duration at the time of patient screening. A diagnosis of MDD with psychotic features was […].
Adequate dose was defined as a dose above the minimum labeled dose (per package insert). Adequate duration was defined as continuous antidepressant therapy treatment for at least 6 weeks, with a minimum of 3 of 6 weeks above the minimum dose.
The study consisted of up to 14 days screening (with up to an additional 7 days of needed) and washout of prohibited medications followed by 6 weeks of double-blind (DB) treatment followed by a 4-week safety follow-up. At the end of the screening period, patients meeting the entry criteria for the study were randomized (1:1:1) to 1 of 3 double-blind treatment groups. Study treatment groups were: cariprazine 1.5 mg/day+antidepressant therapy and cariprazine 3 mg/day+antidepressant therapy. The control group received matching placebo+antidepressant therapy.
Dosage/Dose Regimen: Investigational product (cariprazine or placebo) in the form of capsules packaged in blister packs will be provided. No investigational product was administered during the screening/washout period; patients continued the same antidepressant and dose they were on at screening. Patients were taking more than one antidepressant at screening, regardless of the indication, discontinued all other antidepressants prior to baseline (Visit 2). During the double-blind treatment period (6 weeks), patients were administered 1 capsule orally per day in addition to their ongoing ADT. Patients in the 1.5 mg/day+ADT arm were administered 1.5 mg+ADT starting at Visit 2 (Week 0). Patients in the 3 mg/day+ADT arm were administered 1.5 mg+ADT starting at Visit 2 (Week 0) for 2 weeks and then titrate to 3 mg/day+ADT starting at Visit 4 (Week 2). Patients were supplied with identically appearing capsules of either cariprazine 1.5 mg, cariprazine 3 mg, or placebo.
A randomized, double-blind, placebo-controlled, multicenter trial with 759 participants was conducted in United States, Bulgaria, Estonia, Germany, Hungary, Ukraine, and the United Kingdom. Following a screening period of up to 14 days (with up to an additional 7 days if needed), which included a washout of prohibited psychotropic medications except for ongoing ADT, patients with a partial response to their antidepressant monotherapy were randomized into three treatment groups (1:1:1). One group received cariprazine 1.5 mg/d+ADT, one received cariprazine 3.0 mg/d+ADT, and one group received placebo+ADT. All participants randomized to cariprazine began on 1.5 mg/d; cariprazine 1.5 mg/d patients remained at that dosage, while cariprazine 3.0 mg/d patients received 1.5 mg/d for 2 weeks and increased to 3.0 mg/d on day 15. […]

[1] = 1.5 mg/d + ADT, week 6, ANCOVA and LOCF
[2] = 3.0 mg/d + ADT, week 6, ANCOVA and LOCF
[3] = change from baseline to week 6, dose not stated

CN(C)C(=O)N[C@H]1CC[C@H](CCN2CCN(c3cccc(Cl)c3Cl)CC2)CC1 [Cariprazine, trans-N-{4-[2-[4-(2,3-dichlorophenyl)piperazin-1-yl]ethyl]cyclohexyl}-N′,N′-dimethylurea]
Proportion of patients with MADRS improvement ≥5 points (1.5 mg/d + ADT): 84% | Proportion of patients with MADRS improvement ≥10 points (1.5 mg/d + ADT): 64% | Proportion of patients with MADRS improvement ≥15 points (1.5 mg/d + ADT): 46% | Proportion of patients with MADRS improvement ≥20 points (1.5 mg/d + ADT): 33% | Proportion of patients with MADRS improvement ≥25 points (1.5 mg/d + ADT): 19% | Mean (SD) MADRS score at week 6 (1.5 mg/d + ADT, week 6): 17.4 (9.1) | LS mean change from baseline in MADRS total score [1]: −14.4 | LSMD vs placebo, MADRS total score [1]: −2.4 | MADRS remission rate (total score ≤10) (1.5 mg/d + ADT, week 6): 25.2% | MADRS response rate (≥50% score reduction from baseline) (1.5 mg/d + ADT, week 6): 44.0% | LS Mean (SE) change from baseline, MADRS total score (1.5 mg/day + ADT, week 1, MMRM): −4.4 (0.5) | LSMD (95% CI) vs placebo + ADT, MADRS total score (1.5 mg/day + ADT, week 1, MMRM): −0.6 (−1.5; 0.5) | MADRS remission, odds ratio vs placebo (95% CI) (1.5 mg/day + ADT, week 2): 0.9 (0.4, 1.8) | MADRS remissions (total score ≤10) (1.5 mg/day + ADT, week 2): 13 (5.2) n (%) | MADRS responders (≥50% score reduction) (1.5 mg/day + ADT, week 2): 43 (17.2) n (%) | MADRS response, odds ratio vs placebo (95% CI) (1.5 mg/day + ADT, week 2): 1.2 (0.7, 2.0) | LS Mean (SE) change from baseline, MADRS total score (1.5 mg/day + ADT, week 2, MMRM): −8.6 (0.6) | LSMD (95% CI) vs placebo + ADT, MADRS total score (1.5 mg/day + ADT, week 2, MMRM): −1.2 (−2.5; 0) | MADRS remission, odds ratio vs placebo (95% CI) (1.5 mg/day + ADT, week 4): 1.2 (0.7, 1.9) | MADRS remissions (total score ≤10) (1.5 mg/day + ADT, week 4): 37 (14.8) n (%) | MADRS responders (≥50% score reduction) (1.5 mg/day + ADT, week 4): 88 (35.2) n (%) | MADRS response, odds ratio vs placebo (95% CI) (1.5 mg/day + ADT, week 4): 1.6 (1.1, 2.3) | LS Mean (SE) change from baseline, MADRS total score (1.5 mg/day + ADT, week 4, MMRM): −12.4 (0.6) | LSMD (95% CI) vs placebo + ADT, MADRS total score (1.5 mg/day + ADT, week 4, MMRM): −2.9 (−4.3; −1.5) | MADRS remissions (total score ≤10) (1.5 mg/day + ADT, week 6): 63 (25.2) n (%) | MADRS responders (≥50% score reduction) (1.5 mg/day + ADT, week 6): 110 (44.0) n (%) | LSMD vs placebo, MADRS total score (1.5 mg/day + ADT, week 6, MMRM): −2.5 (−4.2; −0.9) | LSMD vs placebo, MADRS total score (1.5 mg/day + ADT, week 6, MMRM, listed as CAR): −2.5 | LSMD vs placebo, MADRS total score (1.5 mg/day + ADT, week 6, MMRM, listed as cariprazine): −2.5 | LS mean change from baseline in MADRS total score (1.5 mg/day + ADT, week 6, MMRM, mITT): −14.1 (0.7) | LS mean change from baseline in MADRS total score (1.5 mg/day + ADT, week 6, MMRM, mITT, listed as cariprazine): −14.1 | Proportion of patients with MADRS improvement ≥5 points (3.0 mg/d + ADT): 84% | Proportion of patients with MADRS improvement ≥10 points (3.0 mg/d + ADT): 66% | Proportion of patients with MADRS improvement ≥15 points (3.0 mg/d + ADT): 43% | Proportion of patients with MADRS improvement ≥20 points (3.0 mg/d + ADT): 24% | Proportion of patients with MADRS improvement ≥25 points (3.0 mg/d + ADT): 11% | Mean (SD) MADRS score at week 6 (3 mg/d + ADT, week 6): 18.6 (8.9) | LS mean change from baseline in MADRS total score [2]: −13.3 | LSMD vs placebo, MADRS total score [2]: −1.3 | MADRS remission rate (total score ≤10) (3.0 mg/d + ADT, week 6): 16.7% | MADRS response rate (≥50% score reduction from baseline) (3.0 mg/d + ADT, week 6): 39.3% | LS Mean (SE) change from baseline, MADRS total score (3 mg/day + ADT, week 1, MMRM): −3.9 (0.5) | LSMD (95% CI) vs placebo + ADT, MADRS total score (3 mg/day + ADT, week 1, MMRM): −0.1 (−1.0; 0.8) | MADRS remission, odds ratio vs placebo (95% CI) (3 mg/day + ADT, week 2): 0.5 (0.25, 1.23) | MADRS remissions (total score ≤10) (3 mg/day + ADT, week 2): 9 (3.6) n (%) | MADRS responders (≥50% score reduction) (3 mg/day + ADT, week 2): 39 (15.5) n (%) | MADRS response, odds ratio vs placebo (95% CI) (3 mg/day + ADT, week 2): 1.1 (0.7, 1.8) | LS Mean (SE) change from baseline, MADRS total score (3 mg/day + ADT, week 2, MMRM): −7.8 (0.6) | LSMD (95% CI) vs placebo + ADT, MADRS total score (3 mg/day + ADT, week 2, MMRM): −0.5 (−1.7; 0.8) | MADRS remission, odds ratio vs placebo (95% CI) (3 mg/day + ADT, week 4): 0.6 (0.4, 1.1) | MADRS remissions (total score ≤10) (3 mg/day + ADT, week 4): 22 (8.7) n (%) | MADRS responders (≥50% score reduction) (3 mg/day + ADT, week 4): 60 (23.8) n (%) | MADRS response, odds ratio vs placebo (95% CI) (3 mg/day + ADT, week 4): 0.9 (0.6, 1.3) | LS Mean (SE) change from baseline, MADRS total score (3 mg/day + ADT, week 4, MMRM): −10.6 (0.6) | LSMD (95% CI) vs placebo + ADT, MADRS total score (3 mg/day + ADT, week 4, MMRM): −1.0 (−2.4; 0.4) | MADRS remissions (total score ≤10) (3 mg/day + ADT, week 6): 42 (16.7) n (%) | MADRS responders (≥50% score reduction) (3 mg/day + ADT, week 6): 99 (39.3) n (%) | LSMD vs placebo, MADRS total score (3 mg/day + ADT, week 6, MMRM): −1.5 (−3.2; 0.1) | LSMD vs placebo, MADRS total score (3 mg/day + ADT, week 6, MMRM, listed as CAR): −1.5 | LS mean change from baseline in MADRS total score (3 mg/day + ADT, week 6, MMRM, mITT): −13.1 | LSMD vs placebo, MADRS individual item "apparent sadness" [3]: −0.2 | LSMD vs placebo, MADRS individual item "inability to feel" [3]: −0.3 | LSMD vs placebo, MADRS individual item "lassitude" [3]: −0.3 | LSMD vs placebo, MADRS individual item "pessimistic thoughts" [3]: −0.3 | LSMD vs placebo, MADRS individual item "reduced appetite" [3]: −0.3 | LSMD vs placebo, MADRS individual item "reported sadness" [3]: −0.4 | LSMD vs placebo, MADRS individual item "suicidal thoughts" [3]: −0.1
